One assay deals with CDS2. Put plainly: qPCR expression level of cardiolipin biosynthesis-related gene in HK-2 cells under oxidative stress. The format is cell-based, Human. To be noted: oxidative stress + DHMBA, 24 hours, versus the increase in the oxidative stress group, corrected with β-actin, FIG. 5. As to the method: (§1) Human renal proximal tubule cells (HK-2) were subcultured in Dulbecco's Modified Eagle's Medium (DMEM, Nacalai Tesque) containing 10% fetal bovine serum and 1% penicillin-streptmycin at 37°C in a 5% CO2 incubator. The following experiments were conducted using the oxidative stress inducer to confirm the cardiolipin increase effect of DHMBA on the oxidative stress.
(§2) HK-2 cells were seeded in a 6-well plate at a density of 5.0 × 10^4 cells/well and cultured for 24 hours.
(§3) Next, under the same stimulus conditions as described above, 2 mL thereof was added to each well. After 24 hours, total RNA was recovered using NucleoSpin (registered trademark) RNA Kit (MACHEREY-NAGEL). The concentration of the purified RNA was quantified by Nanodrop (Invitrogen). From 1.0 µg of the total RNA, cDNA was synthesized according to a protocol for ReverTra Ace (registered trademark) qPCR RT Master Mix with gDNA Remover (TOYOBO).
(§4) The gene expression levels were measured according to a protocol for THUNDERBIRD (registered trademark) SYBR (registered trademark) qPCR Mix (TOYOBO). Measurements were performed using a CFX Connect™ real-time PCR analysis system (BioRad), and analyzed using a 2^-(ΔΔCT) method.
(§5) The gene expression level of the control group was set at 1 for comparison. The figures are expressed as mean ± SD (n = 4 for each group). […]
(In qPCR the cycle at which signal appears reflects the starting amount.)

For a further assay, the system named is HADHB. Put plainly: qPCR expression level of cardiolipin remodeling and degradation-related gene in HK-2 cells under oxidative stress. The format is cell-based, Human. The following applies: oxidative stress + DHMBA, 24 hours, corrected with β-actin, FIG. 6. How it is done:
as §1, §2, §3, §4, §5

The next assay relates to PNPLA8. The assay is described as above. The format is cell-based, Human. The following applies: oxidative stress + DHMBA, 24 hours, versus the increase in the oxidative stress group, corrected with β-actin, FIG. 6. How it is done: as §1, §2, §3, §4, §5
In assay [1] the test system is Human renal proximal tubule cells (HK-2). Put plainly: Cardiolipin measurement by LC-MS/MS in HK-2 cells under oxidative stress stimulation. In kind it is cell-based. As to the method: as §1
HK-2 cells were seeded in a 6-well plate at a density of 1.0 × 10^5 cells/well and cultured for 24 hours. The cells were then divided into four groups with different stimulus conditions, and 2 mL thereof was added to each well.
The above-described four groups with the different stimulus conditions are as follows.
Control group (culture medium); oxidative stress group (final concentration 100 µM Oxidative Stress); oxidative stress + DHMBA 250 group (final concentration 100 µM Oxidative Stress + final concentration 250 µM DHMBA); and oxidative stress + DHMBA 500 group (final concentration 100 µM Oxidative Stress + final concentration 500 µM DHMBA).
After 24 hours, the cells were washed twice with phosphate-buffered saline (hereinafter referred to as PBS), and then 1 mL of PBS was added to each well and the cells were recovered using a scraper. In this cell suspension, 100 µL was used for protein quantification by a bicinchoninic acid (BCA) method. The protein concentration was used for correction of the cardiolipin concentration. The remaining cell suspension was centrifuged at 1,200 rpm for 5 minutes, the supernatant was removed, and then the precipitated cells were stored at -80°C.
For the cardiolipin measurement, the total intracellular lipids were extracted in the same way as in the previous reports (Chen Z, et al. Metabolomics, 16: 115, 2020).
In short, the lipids in the sample were extracted using hexane/isopropanol 3:2 (v/v, with 0.05% butylated hydroxytoluene), and then dried and hardened in an evaporator. Next, the sample was dissolved in methanol (MeOH), and insoluble substances were removed by centrifugation at 15,000 rpm for 15 minutes at 4°C. The total lipids extracted were stored at -80°C. The cardiolipin measurement was performed using LC-MS/MS, following the same procedure as before.

Where [2] appears, read: oxidative stress + DHMBA, acyl group distribution, FIG. 4.

As for `COc1c(O)cc(CO)cc1O` [DHMBA, 3,5-dihydroxy-4-methoxybenzyl alcohol], the “gene expression level of CDS2” value with CDS2 was “decreased to the same level as the control group”. Also, the “expression level of HADHB” value with HADHB is recorded as “increased”. In the assay on PNPLA8, the “gene expression level of PNPLA8” value is recorded as “decreased to the same level as the control group”. For the same compound, the cardiolipin molecular species entry in assay [1] (100 µM oxidative stress inducer + DHMBA (250 or 500 µM), 24 hours, almost all species, FIG. 2) was “increased significantly”. Moreover, the total cardiolipin content result in assay [1] (co-treatment with 100 µM oxidative stress and 250 µM or 500 µM DHMBA, 24 hours, increase, FIG. 3) was “about 1.5 times”. Besides, in assay [1] (setting [2]), the “saturated fatty acid chain FA16:0 of cardiolipin” value is recorded as “decreased”, the “unsaturated fatty acid chain FA18:1 of cardiolipin” value is recorded as “increased” and the “unsaturated fatty acid chain FA18:2 of cardiolipin” value is on record as “increased”.

These data come from patent EP4570244A1, “ENHANCING AGENT OF CARDIOLIPIN MOLECULAR SPECIES THAT IS MITOCHONDRIAL COMPONENT” (Watanabe Oyster Laboratory Co., Ltd., priority 2022, dated 2024).
